Assay [1] deals with T1, human PrRP receptor GPR10 (Homo sapiens, UniProt P49683).
T1 construct: host or cells: CHO cells
T1 sequence (P49683 1-370): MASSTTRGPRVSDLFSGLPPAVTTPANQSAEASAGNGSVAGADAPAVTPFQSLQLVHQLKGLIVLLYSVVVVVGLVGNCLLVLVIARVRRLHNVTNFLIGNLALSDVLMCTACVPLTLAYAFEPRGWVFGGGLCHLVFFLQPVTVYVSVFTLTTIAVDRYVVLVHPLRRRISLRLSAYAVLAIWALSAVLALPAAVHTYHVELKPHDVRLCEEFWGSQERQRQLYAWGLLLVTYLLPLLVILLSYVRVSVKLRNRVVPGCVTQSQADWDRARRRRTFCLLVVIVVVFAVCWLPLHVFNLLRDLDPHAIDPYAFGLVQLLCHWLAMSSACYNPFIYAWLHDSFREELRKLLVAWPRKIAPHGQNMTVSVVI
Put plainly: Competitive binding in CHO cells transfected with human GPR10 (human 125I-PrRP31). Particulars: affinity relative to PrRP31. The gist of the method: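 Values from one-site nonlinear regression of displacement curves: analogs (final 10^-11 to 10^-4 mol·l^-1) competed with 125I-PrRP31 (final 5×10^-11 mol·l^-1) on adherent human GPR10 CHO cells. Binding ran 1 h at room temperature, pH 7.4 buffer with NaCl, MgCl2, CaCl2, glucose, BSA; cell-bound radioactivity counted after NaOH lysis.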

The next assay addresses T2, rat PrRP receptor (Rattus norvegicus, UniProt Q64121).
T2 construct: host or cells: RC-4B/C rat pituitary cell line
T2 sequence (Q64121 1-370): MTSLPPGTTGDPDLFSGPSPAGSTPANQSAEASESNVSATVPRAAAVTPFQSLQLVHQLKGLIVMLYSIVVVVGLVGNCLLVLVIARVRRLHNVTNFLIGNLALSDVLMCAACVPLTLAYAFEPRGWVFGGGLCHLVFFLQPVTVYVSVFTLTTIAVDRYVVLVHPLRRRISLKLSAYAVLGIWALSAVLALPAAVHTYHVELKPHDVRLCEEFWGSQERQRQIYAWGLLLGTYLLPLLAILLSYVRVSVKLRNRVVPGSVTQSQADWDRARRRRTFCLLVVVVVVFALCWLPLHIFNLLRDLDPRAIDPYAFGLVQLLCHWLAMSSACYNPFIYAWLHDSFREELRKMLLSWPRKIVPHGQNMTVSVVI
As to the kind of experiment: Competitive binding in RC-4B/C rat pituitary cells (125I-rat PrRP31). Particulars: affinity relative to PrRP31. In a few lines: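 Displacement of rat 125I-PrRP31 ([…]) by test analogs, 10^−11–10^−4 mol·l^−1, on whole RC-4B/C cells, 60 min RT. Bound counts measured by γ-counter in duplicate, ≥3 repeats, analyzed by nonlinear one-site binding regression.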

A further assay has as its system C57BL/6 mice. As to the kind of experiment: Food intake in fasted mice after SC injection. Type of assay: in vivo. Particulars: 5 mg/kg SC, 45 min after injection. Here is the method: NMRI mice, C57BL/6 mice, and Wistar rats (AnLab, Prague, Czech Republic) were housed in a temperature of 23° C. and a daily cycle of 12 h light and dark (light from 6:00). They were given ad libitum water and a standard chow diet that contained 25, 9 and 66% of calories of protein, fat and carbohydrate respectively. Energy content of the feed was 3.4 kcal/g (St-1, Mlýn Kocanda, Czech Republic). Db/db mice and their controls (C57BL/6 background) were obtained from Taconic (Denmark), housed under the same conditions as described above, and fed by Altromin (Taconic, Denmark). ZDF-Lepr^fa/Crl, diabetic fa/fa male rats were obtained from Charles River (France), housed under same conditions as described above, and fed with a Purina 5008 diet (IPS Product Supplies Limited, UK). All experiments followed the ethical guidelines for animal experiments and the law of the Czech Republic Nr. 246/1992.
In experiments with C57BL/6 mice or Wistar rats, food intake was measured with overnight fasted animals in individual cages. Food was withdrawn 17 hours prior to injection of lipidated analog of prolactin releasing peptide (PrRP); free access to water was maintained. The administration of either saline, PrRP, or lipidated analogs was performed by SC injection at doses of 1-10 mg/kg (which corresponded to a volume of 0.2 ml/mouse and 0.1 ml/100 g weight of rat). Fifteen minutes after the lipidated analog of prolactin releasing peptide (PrRP) administration, the mice were given pre-weighed food. The food was then weighed every 30 minutes for 5-10 hours. The administration of each dose was performed at least twice, and each group of mice consisted of at least 6 mice.

Square brackets hold non-standard residues; d marks the D form. Peptide text beside a SMILES is read from it. * marks the point of attachment. Palmitoyl = CCCCCCCCCCCCCCCC(=O)*; Myristoyl = CCCCCCCCCCCCCC(=O)*; Lauroyl = CCCCCCCCCCCC(=O)*; Decanoyl = CCCCCCCCCC(=O)*; Nle = CCCC[C@H](N)C(=O)O; Octanoyl = CCCCCCCC(=O)*

Regarding `CCCC[C@H](NC(=O)[C@H](CO)NC(=O)[C@H](Cc1c[nH]cn1)NC(=O)[C@H](CCC(N)=O)NC(=O)[C@H](Cc1c[nH]cn1)NC(=O)[C@H](C)NC(=O)[C@H](CCCNC(=N)N)NC(=O)[C@@H](N)CO)C(=O)N[C@@H](CCC(=O)O)C(=O)N[C@H](C(=O)N[C@@H](CCCNC(=N)N)C(=O)N[C@H](C(=O)N1CCC[C@H]1C(=O)N[C@@H](CC(=O)O)C(=O)N[C@H](C(=O)N[C@@H](CC(N)=O)C(=O)N1CCC[C@H]1C(=O)N[C@@H](C)C(=O)N[C@@H](Cc1c[nH]c2ccccc12)C(=O)N[C@@H](Cc1ccc(O)cc1)C(=O)N[C@H](C(=O)NCC(=O)N[C@@H](CCCNC(=N)N)C(=O)NCC(=O)N[C@H](C(=O)N[C@@H](CCCNC(=N)N)C(=O)N1CCC[C@H]1C(=O)N[C@H](C(=O)NCC(=O)N[C@@H](CCCNC(=N)N)C(=O)N[C@@H](Cc1ccccc1)C(N)=O)C(C)C)[C@@H](C)CC)[C@@H](C)O)[C@@H](C)CC)[C@@H](C)O)[C@@H](C)O` [Analog 3] (H-SRAHQHS[Nle]ETRTPDINPAWYTGRGIRPVGRF-NH2), the “% of PrRP31, GPR10 human receptor transfected in CHO cells” value in assay [1] is recorded as 203%. For the same compound, on rat PrRP receptor, the “% of PrRP31, RC-4B/C rat pituitary cells” value came out at 385%. The “Food intake in mice % of saline-treated group” value with C57BL/6 mice was determined as 100%.
The corresponding values for `CCCCCCCC(=O)N[C@@H](CO)C(=O)N[C@@H](CCCNC(=N)N)C(=O)N[C@@H](C)C(=O)N[C@@H](Cc1c[nH]cn1)C(=O)N[C@@H](CCC(N)=O)C(=O)N[C@@H](Cc1c[nH]cn1)C(=O)N[C@@H](CO)C(=O)N[C@@H](CCCC)C(=O)N[C@@H](CCC(=O)O)C(=O)N[C@H](C(=O)N[C@@H](CCCNC(=N)N)C(=O)N[C@H](C(=O)N1CCC[C@H]1C(=O)N[C@@H](CC(=O)O)C(=O)N[C@H](C(=O)N[C@@H](CC(N)=O)C(=O)N1CCC[C@H]1C(=O)N[C@@H](C)C(=O)N[C@@H](Cc1c[nH]c2ccccc12)C(=O)N[C@@H](Cc1ccc(O)cc1)C(=O)N[C@H](C(=O)NCC(=O)N[C@@H](CCCNC(=N)N)C(=O)NCC(=O)N[C@H](C(=O)N[C@@H](CCCNC(=N)N)C(=O)N1CCC[C@H]1C(=O)N[C@H](C(=O)NCC(=O)N[C@@H](CCCNC(=N)N)C(=O)N[C@@H](Cc1ccccc1)C(N)=O)C(C)C)[C@@H](C)CC)[C@@H](C)O)[C@@H](C)CC)[C@@H](C)O)[C@@H](C)O` [Analog 4] (Octanoyl-SRAHQHS[Nle]ETRTPDINPAWYTGRGIRPVGRF-NH2) are 254%, 503% and 94%.
The corresponding values for `CCCCCCCCCC(=O)N[C@@H](CO)C(=O)N[C@@H](CCCNC(=N)N)C(=O)N[C@@H](C)C(=O)N[C@@H](Cc1c[nH]cn1)C(=O)N[C@@H](CCC(N)=O)C(=O)N[C@@H](Cc1c[nH]cn1)C(=O)N[C@@H](CO)C(=O)N[C@@H](CCCC)C(=O)N[C@@H](CCC(=O)O)C(=O)N[C@H](C(=O)N[C@@H](CCCNC(=N)N)C(=O)N[C@H](C(=O)N1CCC[C@H]1C(=O)N[C@@H](CC(=O)O)C(=O)N[C@H](C(=O)N[C@@H](CC(N)=O)C(=O)N1CCC[C@H]1C(=O)N[C@@H](C)C(=O)N[C@@H](Cc1c[nH]c2ccccc12)C(=O)N[C@@H](Cc1ccc(O)cc1)C(=O)N[C@H](C(=O)NCC(=O)N[C@@H](CCCNC(=N)N)C(=O)NCC(=O)N[C@H](C(=O)N[C@@H](CCCNC(=N)N)C(=O)N1CCC[C@H]1C(=O)N[C@H](C(=O)NCC(=O)N[C@@H](CCCNC(=N)N)C(=O)N[C@@H](Cc1ccccc1)C(N)=O)C(C)C)[C@@H](C)CC)[C@@H](C)O)[C@@H](C)CC)[C@@H](C)O)[C@@H](C)O` [Analog 5] (Decanoyl-SRAHQHS[Nle]ETRTPDINPAWYTGRGIRPVGRF-NH2) are 266%, 758% and 57%.
The corresponding values for `CCCCCCCCCCCC(=O)N[C@@H](CO)C(=O)N[C@@H](CCCNC(=N)N)C(=O)N[C@@H](C)C(=O)N[C@@H](Cc1c[nH]cn1)C(=O)N[C@@H](CCC(N)=O)C(=O)N[C@@H](Cc1c[nH]cn1)C(=O)N[C@@H](CO)C(=O)N[C@@H](CCCC)C(=O)N[C@@H](CCC(=O)O)C(=O)N[C@H](C(=O)N[C@@H](CCCNC(=N)N)C(=O)N[C@H](C(=O)N1CCC[C@H]1C(=O)N[C@@H](CC(=O)O)C(=O)N[C@H](C(=O)N[C@@H](CC(N)=O)C(=O)N1CCC[C@H]1C(=O)N[C@@H](C)C(=O)N[C@@H](Cc1c[nH]c2ccccc12)C(=O)N[C@@H](Cc1ccc(O)cc1)C(=O)N[C@H](C(=O)NCC(=O)N[C@@H](CCCNC(=N)N)C(=O)NCC(=O)N[C@H](C(=O)N[C@@H](CCCNC(=N)N)C(=O)N1CCC[C@H]1C(=O)N[C@H](C(=O)NCC(=O)N[C@@H](CCCNC(=N)N)C(=O)N[C@@H](Cc1ccccc1)C(N)=O)C(C)C)[C@@H](C)CC)[C@@H](C)O)[C@@H](C)CC)[C@@H](C)O)[C@@H](C)O` [Analog 6] (Lauroyl-SRAHQHS[Nle]ETRTPDINPAWYTGRGIRPVGRF-NH2) are 327%, 1264% and 22%.
On to `CCCCCCCCCCCCCC(=O)N[C@@H](CO)C(=O)N[C@@H](CCCNC(=N)N)C(=O)N[C@@H](C)C(=O)N[C@@H](Cc1c[nH]cn1)C(=O)N[C@@H](CCC(N)=O)C(=O)N[C@@H](Cc1c[nH]cn1)C(=O)N[C@@H](CO)C(=O)N[C@@H](CCCC)C(=O)N[C@@H](CCC(=O)O)C(=O)N[C@H](C(=O)N[C@@H](CCCNC(=N)N)C(=O)N[C@H](C(=O)N1CCC[C@H]1C(=O)N[C@@H](CC(=O)O)C(=O)N[C@H](C(=O)N[C@@H](CC(N)=O)C(=O)N1CCC[C@H]1C(=O)N[C@@H](C)C(=O)N[C@@H](Cc1c[nH]c2ccccc12)C(=O)N[C@@H](Cc1ccc(O)cc1)C(=O)N[C@H](C(=O)NCC(=O)N[C@@H](CCCNC(=N)N)C(=O)NCC(=O)N[C@H](C(=O)N[C@@H](CCCNC(=N)N)C(=O)N1CCC[C@H]1C(=O)N[C@H](C(=O)NCC(=O)N[C@@H](CCCNC(=N)N)C(=O)N[C@@H](Cc1ccccc1)C(N)=O)C(C)C)[C@@H](C)CC)[C@@H](C)O)[C@@H](C)CC)[C@@H](C)O)[C@@H](C)O` [Analog 7] (Myristoyl-SRAHQHS[Nle]ETRTPDINPAWYTGRGIRPVGRF-NH2), for which the “% of PrRP31, GPR10 human receptor transfected in CHO cells” value in assay [1] is given as 548%. The “% of PrRP31, RC-4B/C rat pituitary cells” value at rat PrRP receptor was found to be 714%. Further, in the assay on C57BL/6 mice, the “Food intake in mice % of saline-treated group” value amounted to 3%.
The matching figures for `CCCCCCCCCCCCCCCC(=O)N[C@@H](CO)C(=O)N[C@@H](CCCNC(=N)N)C(=O)N[C@@H](C)C(=O)N[C@@H](Cc1c[nH]cn1)C(=O)N[C@@H](CCC(N)=O)C(=O)N[C@@H](Cc1c[nH]cn1)C(=O)N[C@@H](CO)C(=O)N[C@@H](CCCC)C(=O)N[C@@H](CCC(=O)O)C(=O)N[C@H](C(=O)N[C@@H](CCCNC(=N)N)C(=O)N[C@H](C(=O)N1CCC[C@H]1C(=O)N[C@@H](CC(=O)O)C(=O)N[C@H](C(=O)N[C@@H](CC(N)=O)C(=O)N1CCC[C@H]1C(=O)N[C@@H](C)C(=O)N[C@@H](Cc1c[nH]c2ccccc12)C(=O)N[C@@H](Cc1ccc(O)cc1)C(=O)N[C@H](C(=O)NCC(=O)N[C@@H](CCCNC(=N)N)C(=O)NCC(=O)N[C@H](C(=O)N[C@@H](CCCNC(=N)N)C(=O)N1CCC[C@H]1C(=O)N[C@H](C(=O)NCC(=O)N[C@@H](CCCNC(=N)N)C(=O)N[C@@H](Cc1ccccc1)C(N)=O)C(C)C)[C@@H](C)CC)[C@@H](C)O)[C@@H](C)CC)[C@@H](C)O)[C@@H](C)O` [Analog 8] (Palmitoyl-SRAHQHS[Nle]ETRTPDINPAWYTGRGIRPVGRF-NH2): 128%, 967% and 7%.

The values are drawn from patent publication US10350271B2, “Lipidated peptides for lowering blood glucose” (USTAV ORGANICKE CHEMIE A BIOCHEMIE AKADEMIE VED CR, V.V.I., priority 2014, dated 2019).
